Values after ≈ are worked out from the molar mass of the structure shown.
What was measured:
Nakaseomyces glabratus = experiment: Antifungal activity against Candida glabrata ATCC 2001 assessed as inhibition of fungal growth incubated for 24 to 48 hrs by CLSI protocol based broth microdilution method; format: functional; conditions: time 24-48 hrs
[1] = Apparent permeability across basolateral to apical side in human Caco-2 cells measured after 30 to 180 mins by HPLC-MS analysis; format: ADME, cell-based; conditions: time 30-180 min
Candida albicans = experiment: Antifungal activity against Candida albicans SC5314 assessed as inhibition of fungal growth incubated for 24 to 48 hrs by CLSI protocol based broth microdilution method; format: functional; conditions: time 24-48 hrs
Candida parapsilosis = experiment: Antifungal activity against Candida parapsilosis ATCC 22019 assessed as inhibition of fungal growth incubated for 24 to 48 hrs by CLSI protocol based broth microdilution method; format: functional; conditions: Lodderomyces parapsilosis, time 24-48 hrs
[2] = Efflux ratio of apparent permeability across basolateral to apical over apical to basolateral side in human Caco-2 cells measured after 30 to 180 mins by HPLC-MS analysis; format: ADME, cell-based; conditions: time 30-180 min
Caco-2 = experiment: Cytotoxicity against human Caco-2 cells assessed as reduction in cell viability at 10 to 40 microg/ml measured upto 12 hrs by MTT assay; format: functional; conditions: dose 10-40 µg/ml, at 10 to 40 µg/mL
[3] = Cytotoxicity against human PBMC cells assessed as inhibition of cell growth incubated for 24 to 48 hrs by MTT assay; format: toxicity, cell-based
Candida tropicalis = experiment: Antifungal activity against Candida tropicalis ATCC 750 assessed as inhibition of fungal growth incubated for 24 to 48 hrs by CLSI protocol based broth microdilution method; format: functional; conditions: time 24-48 hrs
[4] = Antifungal activity against Cryptococcus gattii ATCC 24065 assessed as inhibition of fungal growth incubated for 24 to 48 hrs by CLSI protocol based broth microdilution method; format: functional, Cryptococcus gattii VGI; conditions: time 24-48 hrs
[Candida] auris = Antifungal activity against Candida auris COLO 01 assessed as inhibition of fungal growth incubated for 24 to 48 hrs by CLSI protocol based broth microdilution method; format: functional; conditions: Candidozyma auris, time 24-48 hrs
Pichia kudriavzevii = experiment: Antifungal activity against Candida krusei ATCC 20298 assessed as inhibition of fungal growth incubated for 24 to 48 hrs by CLSI protocol based broth microdilution method; format: functional; conditions: time 24-48 hrs
Cryptococcus neoformans [5] = experiment: Antifungal activity against Cryptococcus neoformans ATCC 24067 assessed as inhibition of fungal growth incubated for 24 to 48 hrs by CLSI based broth microdilution method; format: functional; conditions: time 24-48 hrs
Cryptococcus neoformans [6] = experiment: Antifungal activity against Cryptococcus neoformans H99 infected in Tenebrio molitor larvae assessed as survival rate of larvae at 80 microg/ml measured after 24 hrs; format: functional
[7] = Apparent permeability across apical to basolateral side in human Caco-2 cells measured after 30 to 180 mins by HPLC-MS analysis; format: ADME, cell-based; conditions: time 30-180 min

For `CCOC(=O)Cc1csc(N/N=C(\C)CCC(=O)O)n1`, the MIC (Nakaseomyces glabratus) was 52.2 µM (≈ 15.6 µg/mL), the Papp B→A [1] was 5.26 ×10⁻⁶ cm/s and the MIC (Candida albicans) was 3.2 µM (≈ 0.958 µg/mL). For the same molecule, the MIC (Candida parapsilosis) was 1.6 µM (≈ 0.479 µg/mL), the efflux ratio [2] was 3.58 and the Activity (Caco-2) was >70%. For the same molecule, the IC50 [3] was > 500 µM, the MIC (Candida tropicalis) was 0.8 µM (≈ 0.239 µg/mL) and the MIC [4] was 3.2 µM (≈ 0.958 µg/mL). For the same molecule, the MIC ([Candida] auris) was 1.6 µM (≈ 0.479 µg/mL), the MIC (Pichia kudriavzevii) was 0.8 µM (≈ 0.239 µg/mL) and the MIC (Cryptococcus neoformans [5]) was 3.2 µM (≈ 0.958 µg/mL). The survival at 80 µg/mL (Cryptococcus neoformans [6]) was 63% and the Papp A→B [7] was 1.47 ×10⁻⁶ cm/s.

Source: ChEMBL document CHEMBL5375986, “Discovery of Lead 2-Thiazolylhydrazones with Broad-Spectrum and Potent Antifungal Activity” (J Med Chem, 2023)
